Assay results from US20220298511A1, “APPLICATION OF COMBINED INHIBITION OF LNCRNA SAMMSON AND BRAF KINASE IN DELAYING ADAPTIVE DRUG-RESISTANCE OF MELANOMA” (XI'AN JIAOTONG UNIVERSITY, priority 2021, published 2022).

Columns and labels:
[1] = system: SAMMSON RNA level in 1205Lu melanoma cells carrying BRAF^V600E mutation; assay: qRT-PCR analysis of SAMMSON RNA level after kinase inhibitor treatment; conditions: 1205Lu cells, 2 μM inhibitor, 0, 6 and 24 hours, actin as internal control
Protocol: (§3) Melanoma cell lines 1205Lu and A375 carrying BRAF^V600E mutation and HEK293FT cells were cultured in a 37° C. constant temperature incubator (containing 5% CO2). The A375 and HEK293FT cells were cultured in Dulbecco's Modified Eagle's Medium (DMEM), and the 1205Lu cells were cultured in Roswell Park Memorial Institute 1640 medium (RPMI 1640 medium). Both of the media contain 10% fetal bovine serum, penicillin (100 units/ml), and streptomycin (100 μg/ml).
(§4) Total RNA was extracted from the melanoma cells using TriPure Isolation Reagent (Roche, Basel, Switzerland), and then reverse transcribed into cDNA using the kit PrimeScript RT Master Mix (Takara #DRR036A, Osaka, Japan). Quantitative real-time PCR reactions were performed using iQ SYBR Green Supermix (BioRad), and analyzed by CFX Connect real-time PCR detection system (BioRad).

[2] = system: SAMMSON RNA level in A375 melanoma cells carrying BRAF^V600E mutation; assay: as above; conditions: 2 μM inhibitor, 0, 6 and 24 hours, actin as internal control
Protocol: as §3, §4

A375 cells = assay: Annexin-V/PI apoptosis assay with SAMMSON siRNA knockdown and vemurafenib; format: cell-based; conditions: then 5 μM vemurafenib 48 hours
Protocol: (§1) The cells were collected, washed twice with PBS and stained for 20-30 minutes using Annexin-V-FLUOS kit (Roche) according to the manufacturer's protocol. The stained cells were analyzed by a flow cytometer (Beckman Coulter, Indianapolis Ind., USA). The data were analyzed using Flowjo software (Three Star, Inc., Ashland, Oreg., USA).
The non-targeting control siRNA sequence is:
We tested whether the up-regulation of SAMMSON induced by the inhibition of the ERK signaling pathway is involved in the adaptive drug-resistance of melanoma cells. Two pairs of specific siRNAs (SEQ ID NO: 4 and SEQ ID NO: 5) were used to knock down SAMMSON in two melanoma cell lines A375 and 1205Lu carrying BRAF mutations. […] Referring also to FIGS. 3C to 3F, in A375 cells, percentage of cell apoptosis increased from 19% to 43% (SAM #1) and 37% (SAM #2), and in 1205Lu cells, from 26% to 43% (SAM #1) and 46% (SAM #2).

A375 TR SAMMSON cells = assay: Annexin-V/PI apoptosis assay with doxycycline-induced SAMMSON overexpression; format: cell-based; conditions: 5 μM vemurafenib 48 hours
Protocol: (§2) The wild-type HA-SOX10 cDNA or SAMMSON cDNA was cloned into a pENTR/D-TOPO vector (Thermo Fisher Scientific) to construct an entry vector. Then, the entry vector and a pLentipuro/TO/V5-DEST vector were recombined to form a lentiviral vector. Lentivirus packaging for the lentiviral vector was performed in HEK293FT cells to produce lentiviruses. The melanoma cells 1205Lu and A375 were infected with the lentiviruses for 72 hours, and then screened by using puromycin to produce A375-TR HA-SOX10 WT cells, 1205Lu-TR HA-SOX10 WT cells, A375-TR SAMMSON cells and 1205Lu-TR SAMMSON cells.
as §1

1205Lu TR SAMMSON cells = assay: as above; format: cell-based; conditions: 5 μM vemurafenib 48 hours
Protocol: as §2, §1

[3] = with 100 ng/ml doxycycline 72 hours (SAMMSON overexpressed)

Question: With `O=C(Nc1ccc2[nH]nc(-c3ccncc3)c2c1)[C@@H]1CCN(CC(=O)N2CCN(c3ccc(-c4ncccn4)cc3)CC2)C1` [SCH772984] as the compound, how does the “RNA level of SAMMSON” value [1] read?
Answer: rapidly up-regulate the RNA level of SAMMSON

Question: And the “RNA level of SAMMSON” value [2]?
Answer: rapidly up-regulate the RNA level of SAMMSON

Question: How did the “percentage of cell apoptosis” value (A375 cells; control siRNA 48 hours) turn out when `CCCS(=O)(=O)Nc1ccc(F)c(C(=O)c2c[nH]c3ncc(-c4ccc(Cl)cc4)cc23)c1F` [vemurafenib, Vemurafenib] was run?
Answer: 19%

Question: And the “percentage of cell apoptosis” value (A375 TR SAMMSON cells; [3])?
Answer: 33%

Question: And the “percentage of cell apoptosis” value (A375 TR SAMMSON cells; without doxycycline)?
Answer: 51%

Question: And the “percentage of cell apoptosis” value (1205Lu TR SAMMSON cells; [3])?
Answer: 33%

Question: What about the “percentage of cell apoptosis” value (1205Lu TR SAMMSON cells; without doxycycline) of the same compound?
Answer: 44%

Question: Which “percentage of cell apoptosis” value (A375 cells; SAMMSON siRNA 48 hours) does the source give for “SAM #1: SAMMSON-specific siRNA, SEQ ID NO: 4, 5′-GUCGCUAGACAUUUGAGGA-3′ (listed as RNA, chemistry not given here)” here?
Answer: 43%

Question: How did the “percentage of cell apoptosis” value (A375 cells; SAMMSON siRNA 48 hours) turn out when “SAM #2: SAMMSON-specific siRNA, SEQ ID NO: 5, 5′-CCAACUCUCAAAGUAACUU-3′ (listed as RNA, chemistry not given here)” was run?
Answer: 37%
